Measurements reported in patent publication US20030104945A1, “2,4-Diamino-1,3,5-triazines, their preparation, and their use as herbicides and plant growth regulators” (priority 2001, published 2003).

How the values were obtained:
Type in all cases: in vivo
[1] = test system: harmful plants such as Stellaria media, Lolium multiflorum, Amaranthus retroflexus, Sinapis alba, Avena sativa and Setaria viridis; assay: Pre-emergence herbicidal action (greenhouse pot test); conditions: application rate of 1 kg or less active substance per hectare, scored after 3 to 4 weeks vs untreated controls
From the text: Seeds and rhizome sections of monocotyledonous and dicotyledonous harmful plants are placed in sandy loam in plastic pots and covered with soil. The compounds according to the invention which are formulated in the form of wettable powders or emulsion concentrates at various rates, are then applied to the surface of the covering soil as aqueous suspension or emulsion at an application rate of 600 to 800 l of water per ha (converted).
After the treatment, the pots are placed in the greenhouse and kept under good growth conditions for the weeds. Visual scoring of the plant damage or the adverse effect on emergence is done after the test plants have emerged after an experimental period of 3 to 4 weeks in comparison with untreated controls.

[2] = test system: harmful plants which are typical of rice crops such as, for example, Cyperus monti, Echinochloa crus-galli and Sagittaria pygmaea; assay: Activity against harmful plants in rice (paddy rice conditions); conditions: poured into paddy water at various dosages; scored about three weeks after application vs untreated controls; further: test concentration or dose not given here
Method: Transplanted and seeded rice and typical grass weeds and broad-leaved weeds in rice crops are grown in the greenhouse under paddy rice conditions (depth of the paddy water: 2-3 cm) in sealed plastic pots until they have reached the three-leaf stage (Echinochloa crus-galli 1.5-leaf). They are then treated with the compounds according to the invention. To this end, the formulated active substances are suspended, dissolved or emulsified in water and the product is poured into the paddy water of the test plants at various dosages. After the treatment has been carried out thus, the test plants are placed in the greenhouse under optimal growth conditions and kept like this over the entire experimental period.
About three weeks after application, the evaluation is carried out by is of visually scoring the plant damage in comparison with untreated controls.

[3] = test system: harmful plants such as Sinapis alba, Echinochloa crus-galli, Lolium multiflorum, Stellaria media, Cyperus iria, Amaranthus retroflexus, Setaria viridus and …; assay: Post-emergence herbicidal action (greenhouse pot test); conditions: three-leaf stage, application rate of 1 kg and less of active substance per hectare, scored after approx. 3 to 4 weeks vs untreated controls
Method: Seeds or rhizome sections of monocotyledonous and dicotyledonous weeds are placed in sandy loam soil in plastic pots, covered with soil and grown in the greenhouse under good growth conditions. Three weeks after sowing, the experimental plants are treated at the three-leaf stage. The compounds according to the invention, which are formulated as wettable powders or as emulsion concentrates, are sprayed at various rates onto the green plant organs at an application rate of 600 to 800 l of water per ha (converted). After the experimental plants have remained in the greenhouse for approx. 3 to 4 weeks under optimal growth conditions, the effect of the compositions is scored visually in comparison with untreated controls. The substances according to the invention also have a good herbicidal action against a broad spectrum of economically important grass weeds and broad-leaved weeds when applied post-emergence.

CC(F)c1nc(N)nc(NC(C)[C@@H]2C[C@H]2c2ccccc2)n1 (relative stereo) [Example 1-2, 2-Amino-4-(1-fluoroethyl)-6-[1-(trans-2-phenylcyclopropyl)-1-ethylamino]-1,3,5-triazine]
very good herbicidal activity: herbicidal activity, visual scoring of plant damage or adverse effect on emergence [1] | herbicidal activity, visual scoring of plant damage [2] | herbicidal activity, visual scoring [3]

CC(C)c1nc(N)nc(NC(C2CC2)[C@@H]2C[C@H]2c2ccccc2)n1 (relative stereo) [Example 3-2]
very good herbicidal activity: herbicidal activity, visual scoring of plant damage or adverse effect on emergence [1] | herbicidal activity, visual scoring of plant damage [2] | herbicidal activity, visual scoring [3]

CC(C)c1nc(N)nc(NC(CC2CC2)[C@@H]2C[C@H]2c2ccccc2)n1 (relative stereo) [Example 5-2]
very good herbicidal activity: herbicidal activity, visual scoring of plant damage or adverse effect on emergence [1] | herbicidal activity, visual scoring of plant damage [2] | herbicidal activity, visual scoring [3]

CCC(F)(CC)c1nc(N)nc(NC(CC2CC2)[C@@H]2C[C@H]2c2ccccc2)n1 (relative stereo) [Example 5-3]
very good herbicidal activity: herbicidal activity, visual scoring of plant damage or adverse effect on emergence [1] | herbicidal activity, visual scoring of plant damage [2] | herbicidal activity, visual scoring [3]

CC(C)(F)c1nc(N)nc(NC(CC2CC2)[C@@H]2C[C@H]2c2ccccc2)n1 (relative stereo) [Example 5-1]
very good herbicidal activity: herbicidal activity, visual scoring of plant damage or adverse effect on emergence [1] | herbicidal activity, visual scoring of plant damage [2] | herbicidal activity, visual scoring [3]

CCC(F)c1nc(NC=O)nc(NC(CC2CC2)[C@@H]2C[C@H]2c2ccccc2)n1 (relative stereo) [Example 5-4]
very good herbicidal activity: herbicidal activity, visual scoring of plant damage or adverse effect on emergence [1] | herbicidal activity, visual scoring of plant damage [2] | herbicidal activity, visual scoring [3]

CCC(Nc1nc(N)nc(C(C)F)n1)[C@@H]1C[C@H]1c1ccccc1 (relative stereo) [Example 2-3]
very good herbicidal activity: herbicidal activity, visual scoring of plant damage or adverse effect on emergence [1] | herbicidal activity, visual scoring of plant damage [2] | herbicidal activity, visual scoring [3]

CCC(F)(CC)c1nc(N)nc(NC(C2CCC2)[C@@H]2C[C@H]2c2ccccc2)n1 (relative stereo) [Example 4-2]
very good herbicidal activity: herbicidal activity, visual scoring of plant damage or adverse effect on emergence [1] | herbicidal activity, visual scoring of plant damage [2] | herbicidal activity, visual scoring [3]

CCC(F)c1nc(N)nc(NC(CC)[C@@H]2C[C@H]2c2ccccc2)n1 (relative stereo) [Example 2-8]
very good herbicidal activity: herbicidal activity, visual scoring of plant damage or adverse effect on emergence [1] | herbicidal activity, visual scoring of plant damage [2] | herbicidal activity, visual scoring [3]

CC(F)c1nc(N)nc(NC(C2CCC2)[C@@H]2C[C@H]2c2ccccc2)n1 (relative stereo) [Example 4-3]
very good herbicidal activity: herbicidal activity, visual scoring of plant damage or adverse effect on emergence [1] | herbicidal activity, visual scoring of plant damage [2] | herbicidal activity, visual scoring [3]

CC(C)c1nc(N)nc(NC(C2CCC2)[C@@H]2C[C@H]2c2ccccc2)n1 (relative stereo) [Example 4-27]
very good herbicidal activity: herbicidal activity, visual scoring of plant damage or adverse effect on emergence [1] | herbicidal activity, visual scoring of plant damage [2] | herbicidal activity, visual scoring [3]

CCC(Nc1nc(N)nc(C(C)(C)F)n1)[C@@H]1C[C@H]1c1ccccc1 (relative stereo) [Example 2-1, 2-Amino-4-(1-fluoro-1-methylethyl)-6-[1-(trans-2-phenylcyclopropyl)prop-1-ylamino]-1,3,5-triazine]
very good herbicidal activity: herbicidal activity, visual scoring of plant damage or adverse effect on emergence [1] | herbicidal activity, visual scoring of plant damage [2] | herbicidal activity, visual scoring [3]

CC(C)(F)c1nc(N)nc(NC(C2CCC2)[C@@H]2C[C@H]2c2cccc(Cl)c2)n1 (relative stereo) [Example 4-28]
very good herbicidal activity: herbicidal activity, visual scoring of plant damage or adverse effect on emergence [1] | herbicidal activity, visual scoring of plant damage [2] | herbicidal activity, visual scoring [3]

CC(C)c1nc(N)nc(NC(C)[C@@H]2C[C@H]2c2ccccc2)n1 (relative stereo) [Example 1-4]
very good herbicidal activity: herbicidal activity, visual scoring of plant damage or adverse effect on emergence [1] | herbicidal activity, visual scoring of plant damage [2] | herbicidal activity, visual scoring [3]

CC(C)(F)c1nc(N)nc(NC(C2CC2)[C@@H]2C[C@H]2c2ccccc2)n1 (relative stereo) [Example 3-1]
very good herbicidal activity: herbicidal activity, visual scoring of plant damage or adverse effect on emergence [1] | herbicidal activity, visual scoring of plant damage [2] | herbicidal activity, visual scoring [3]

CC(F)c1nc(N)nc(NC(C2CC2)[C@@H]2C[C@H]2c2ccccc2)n1 (relative stereo) [Example 3-3]
very good herbicidal activity: herbicidal activity, visual scoring of plant damage or adverse effect on emergence [1] | herbicidal activity, visual scoring of plant damage [2] | herbicidal activity, visual scoring [3]

CC(C)c1nc(N)nc(NC(C2CC2)[C@@H]2C[C@H]2c2cc(Cl)cc(Cl)c2)n1 (relative stereo) [Example 3-28]
very good herbicidal activity: herbicidal activity, visual scoring of plant damage or adverse effect on emergence [1] | herbicidal activity, visual scoring of plant damage [2] | herbicidal activity, visual scoring [3]

CC(C)(F)c1nc(N)nc(NC(C2CCC2)[C@@H]2C[C@H]2c2ccccc2)n1 (relative stereo) [Example 4-1]
very good herbicidal activity: herbicidal activity, visual scoring of plant damage or adverse effect on emergence [1] | herbicidal activity, visual scoring of plant damage [2] | herbicidal activity, visual scoring [3]

CCC(Nc1nc(N)nc(C(C)C)n1)[C@@H]1C[C@H]1c1ccccc1 (relative stereo) [Example 2-2]
very good herbicidal activity: herbicidal activity, visual scoring of plant damage or adverse effect on emergence [1] | herbicidal activity, visual scoring of plant damage [2] | herbicidal activity, visual scoring [3]

CCC(F)c1nc(N)nc(NC(C2CC2)[C@@H]2C[C@H]2c2ccccc2)n1 (relative stereo) [Example 3-4]
very good herbicidal activity: herbicidal activity, visual scoring of plant damage or adverse effect on emergence [1] | herbicidal activity, visual scoring of plant damage [2] | herbicidal activity, visual scoring [3]

CCC(F)c1nc(N)nc(NC(C2CC2)[C@@H]2C[C@H]2c2cc(Cl)cc(Cl)c2)n1 (relative stereo) [Example 3-27]
very good herbicidal activity: herbicidal activity, visual scoring of plant damage or adverse effect on emergence [1] | herbicidal activity, visual scoring of plant damage [2] | herbicidal activity, visual scoring [3]

CC(F)c1nc(N)nc(NC(C2CC2)[C@@H]2C[C@H]2c2cc(Cl)cc(Cl)c2)n1 (relative stereo) [Example 3-26]
very good herbicidal activity: herbicidal activity, visual scoring of plant damage or adverse effect on emergence [1] | herbicidal activity, visual scoring of plant damage [2] | herbicidal activity, visual scoring [3]

CCC(F)c1nc(N)nc(NC(C)[C@@H]2C[C@H]2c2ccccc2)n1 (relative stereo) [Example 1-3]
very good herbicidal activity: herbicidal activity, visual scoring of plant damage or adverse effect on emergence [1] | herbicidal activity, visual scoring of plant damage [2] | herbicidal activity, visual scoring [3]

CCc1nc(N)nc(NC(C)[C@@H]2C[C@H]2c2ccccc2)n1 (relative stereo) [Example 1-6]
very good herbicidal activity: herbicidal activity, visual scoring of plant damage or adverse effect on emergence [1] | herbicidal activity, visual scoring of plant damage [2] | herbicidal activity, visual scoring [3]
